According to US20120238557A1, “AMINOTHIAZINE OR AMINOOXAZINE DERIVATIVE HAVING AMINO LINKER” (SHIONOGI & CO., LTD., priority 2009, published 2012):

How the values were obtained:
[1] = test system: Neuroblastoma SH-SY5Y cells (SH/APPwt) with human wild-type β-APP excessively expressed; assay: Measurement of β-amyloid (Aβ) production inhibitory effect in cell; assay type: cell-based; conditions: amount needed to inhibit Aβ production by 50%, SH/APPwt cells, 24 hours, Table 3, read-out: IC50
Procedure: Neuroblastoma SH-SY5Y cells (SH/APPwt) with human wild-type β-APP excessively expressed therein were prepared at 8×10^5 cells/mL, and 150 μl portions thereof were inoculated into each well of a 96-well culture plate (Falcon). The cells were cultured for 2 hours at 37° C. in a 5% gaseous carbon dioxide incubator. Then, a solution which had been preliminarily prepared by adding and suspending the test compound (DMSO (dimethyl sulfoxide) solution) so as to be 2 μl/50 μl medium was added to the cell sap. Namely, the final DMSO concentration was 1%, and the amount of the cell culture was 200 μl. After the incubation was performed for 24 hours from the addition of the test compound, 100 μl of the culture supernatant was collected from each fraction. The amount of the Aβ in each fraction was measured.
The Aβ amount was measured as follows. 10 μl of a homogeneous time resolved fluorescence (HTRF) measurement reagent (Amyloid β 1-40 peptide; IBA Molecular Holding, S. A.) and 10 μl of the culture supernatant were put into a 384-well half area microplate (black microplate, Costar) and mixed with each other, and then left standing overnight at 4° C. while the light was shielded. Then, the fluorescence intensity (excitation wavelength: 337 nm, measurement wavelength: 620 nm and 665 nm) was measured with a Wallac 1420 multilabel counter (Perkin Elmer life sciences).

[2] = Brain distribution studies; assay type: in vivo; conditions: brain/plasma; rat, intravenous 0.5 mg/mL/kg, 30 minutes later; read-out: brain Kp value (area ratio brain/plasma)
Procedure: Intravenous administration is carried out to a rat by 0.5 mg/mL/kg dosage of the compound. […] Then, the brain was extracted and 20-25% of homogenate thereof was prepared with distilled water. On the other hand, the obtained blood is used as plasma after centrifuging. Then, to the brain sample was added the control plasma at 1:1. To the plasma samples was added the control brains at 1:1. Each sample was measured using LC/MS/MS. The obtained area ratio (a brain/plasma) was used for the brain Kp value.

Recombinant human BACE1 = target: T1, Recombinant human BACE1 (Homo sapiens, UniProt P56817); assay: Assay of BACE1 inhibiting activity; assay type: biochemical; conditions: 50% inhibitory concentration against enzymatic activity of recombinant human BACE1; Table 2
T1 construct: purchased R&D Systems
T1 sequence (P56817 46-501): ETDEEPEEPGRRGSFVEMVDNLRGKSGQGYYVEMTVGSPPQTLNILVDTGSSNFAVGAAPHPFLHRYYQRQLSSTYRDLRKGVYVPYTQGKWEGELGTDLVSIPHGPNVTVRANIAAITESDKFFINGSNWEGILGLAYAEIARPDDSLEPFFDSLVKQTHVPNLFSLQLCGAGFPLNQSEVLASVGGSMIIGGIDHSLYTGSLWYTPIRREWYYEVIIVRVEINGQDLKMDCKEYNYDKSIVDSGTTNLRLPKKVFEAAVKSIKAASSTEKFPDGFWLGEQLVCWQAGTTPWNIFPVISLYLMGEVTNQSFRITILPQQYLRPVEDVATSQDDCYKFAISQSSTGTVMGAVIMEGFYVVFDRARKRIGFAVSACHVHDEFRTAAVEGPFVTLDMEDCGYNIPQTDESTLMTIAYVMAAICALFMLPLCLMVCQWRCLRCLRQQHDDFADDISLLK

IC50 [1]: 9 nM
Kp at 0.5 h [2]: 2.2
IC50 (Recombinant human BACE1): 100 nM
Compound: C[C@@]1(c2cc(Nc3ncccc3C#N)ccc2F)CCSC(N)=N1 [Compound I-11]
